Experimental data: paper PMC9000871, “Rhodamine 101 Conjugates of Triterpenoic Amides Are of Comparable Cytotoxicity as Their Rhodamine B Analogs” (Molecules, 2022)

Experiments:
[1] = tested on: HT29 (colon adenocarcinoma); experiment: SRB cytotoxicity assay, HT29; assay type: cell-based, human; details: Homo sapiens, HT-29, 72 h, 72 h of treatment, mean ± standard mean error
Source text: (§1) The cell lines were obtained from Department of Oncology (Martin-Luther-University Halle Wittenberg; they were bought from ATCC; A 375 (CRL-1619), HT29 (HTB-38), MCF7 (HTM-22), A2780 (HTP-77), FaDu (HTP-43), NIH 3T3 (CRL-1658), HEK-293 (CRL-1573)). Cultures were maintained as monolayers in RPMI 1640 medium with L-glutamine (Capricorn Scientific GmbH, Ebsdorfergrund, Germany) supplemented with 10% heat inactivated fetal bovine serum (Sigma-Aldrich Chemie GmbH, Steinheim, Germany) and penicillin/streptomycin (1%, Capricorn Scientific GmbH, Ebsdorfergrund, Germany) at 37 °C in a humidified atmosphere with 5% CO2. The cytotoxicity of the compounds was evaluated using the sulforhodamine-B (Kiton-Red S, ABCR) micro culture colorimetric assay using confluent cells in 96-well plates with the seeding of the cells on day 0 applying appropriate cell densities to prevent confluence of the cells during the period of the experiment. On day 1, the cells were treated with six different concentrations (1, 3, 7, 12, 20, and 30 μM); thereby, the final concentration of DMSO was always <0.5%, generally regarded as non-toxic to the cells. On day 4, the supernatant medium was discarded; the cells were fixed with 10% trichloroacetic acid. After another day at 4 °C, the cells were washed in a strip washer and dyed with the SRB solution (100 μL, 0.4% in 1% acetic acid) for about 20 min to be followed by washing of the plates (four times, 1% acetic acid) and air-drying overnight. Furthermore, tris base solution (200 μL, 10 mM) was added to each well and absorbance was measured at λ = 570 nm employing a reader (96 wells, Tecan Spectra, Crailsheim, Germany). The EC50 values were averaged from three independent experiments performed each in triplicate calculated from semi logarithmic dose response curves applying a non-linear four-parameter Hills-slope equation (GraphPad Prism5; variables top and bottom were set to 100 and 0, respectively).

A375 (melanoma) = experiment: SRB cytotoxicity assay, A375; assay type: cell-based, human; details: Homo sapiens, A-375, 72 h, 72 h of treatment, mean ± standard mean error
Source text: as §1

[2] = tested on: MCF-7 (breast adenocarcinoma); experiment: SRB cytotoxicity assay, MCF-7; assay type: cell-based; details: Homo sapiens, MCF7, 72 h of treatment, mean ± standard mean error
Source text: as §1

[3] = tested on: A2780 (ovarian carcinoma); experiment: SRB cytotoxicity assay, A2780; assay type: cell-based; details: Homo sapiens, 72 h of treatment, mean ± standard mean error
Source text: as §1

[4] = tested on: NIH 3T3 (fibroblasts), non-malignant; experiment: SRB cytotoxicity assay, NIH 3T3; assay type: cell-based; details: Mus musculus, NIH3T3, 72 h, 72 h of treatment, mean ± standard mean error
Source text: as §1

Row | SMILES | EC50 [1] | EC50 (A375 (melanoma)) | EC50 [2] | EC50 [3] | EC50 [4]
1 | C=C(C)[C@@H]1CC[C@]2(C(=O)N3CCN(C(=O)c4ccccc4-c4c5ccc(=[N+](CC)CC)cc-5oc5cc(N(CC)CC)ccc45)CC3)CC[C@]3(C)C(CCC4[C@@]5(C)CC[C@H](OC(C)=O)C(C)(C)C5CC[C@]43C)C12 (stereo partly drawn) [compound 13, 9-[2-[[4-(3β-Acetyloxy-28-oxo-lup-20(29)en-28-yl)-1-piperazinyl]carbonyl]phenyl]-3,6-bis(diethylamino)-xanthylium chloride] | 151 ± 22 nM | 90 ± 10 nM | 81 ± 5 nM | 50 ± 4 nM | 208 ± 34 nM
2 | CCN(CC)c1ccc2c(-c3ccccc3C(=O)N3CCCN(C(=O)[C@]45CC[C@@H](C)[C@H](C)C4C4=CCC6[C@@]7(C)CC[C@H](OC(C)=O)C(C)(C)C7CC[C@@]6(C)[C@]4(C)CC5)CC3)c3ccc(=[N+](CC)CC)cc-3oc2c1 (stereo partly drawn) [compound 19, 9-[2-[[4-(3β-Acetyloxy-28-oxo-urs-12-en-28-yl]-1-homopiperazinyl]carbonyl]phenyl]-3,6-bis(diethylamino)-xanthylium chloride] | 500 ± 70 nM | 510 ± 50 nM | 390 ± 40 nM | 450 ± 30 nM | 400 ± 30 nM
3 | CCN(CC)c1ccc2c(-c3ccccc3C(=O)N3CCN(C(=O)[C@]45CC[C@@H](C)[C@H](C)C4C4=CCC6[C@@]7(C)CC[C@H](OC(C)=O)C(C)(C)C7CC[C@@]6(C)[C@]4(C)CC5)CC3)c3ccc(=[N+](CC)CC)cc-3oc2c1 (stereo partly drawn) [compound 15, 9-[2-[[4-(3β-Acetyloxy-28-oxo-ursan-12-en-28-yl)-1-piperazinyl]carbonyl]phenyl]-3,6-bis(diethylamino)-xanthylium chloride] | 83 ± 7 nM | 40 ± 20 nM | 75 ± 5 nM | 38 ± 2 nM | 137 ± 9 nM
4 | CCN(CC)c1ccc2c(-c3ccccc3C(=O)N3CCN(C(=O)[C@]45CCC(C)(C)CC4C4=CCC6[C@@]7(C)CC[C@H](OC(C)=O)C(C)(C)C7CC[C@@]6(C)[C@]4(C)CC5)CC3)c3ccc(=[N+](CC)CC)cc-3oc2c1 (stereo partly drawn) [compound 14, 9-[2-[[4-(3β-Acetyloxy-28-oxo-olean-12-en-28-yl)-1-piperazinyl]carbonyl]phenyl]-3,6-bis(diethylamino)-xanthylium chloride] | 91 ± 10 nM | 90 ± 10 nM | 62 ± 4 nM | 32 ± 1 nM | 137 ± 6 nM
5 | CCN(CC)c1ccc2c(-c3ccccc3C(=O)N3CCN(C(=O)[C@]45CC[C@@H](C(C)=O)C4C4CCC6[C@@]7(C)CC[C@H](OC(C)=O)C(C)(C)C7CC[C@@]6(C)[C@]4(C)CC5)CC3)c3ccc(=[N+](CC)CC)cc-3oc2c1 (stereo partly drawn) [compound 16, 9-[2-[[4-(3β-Acetyloxy-20,28-dioxo-30-norlupan-28-yl)-1-piperazinyl]carbonyl]phenyl]-3,6-bis(diethylamino)-xanthylium chloride] | 99 ± 16 nM | 80 ± 30 nM | 70 ± 2 nM | 36 ± 1 nM | 171 ± 6 nM
6 | CCN(CC)c1ccc2c(-c3ccccc3C(=O)N3CCCN(C(=O)[C@]45CC[C@@H](C(C)=O)C4C4CCC6[C@@]7(C)CC[C@H](OC(C)=O)C(C)(C)C7CC[C@@]6(C)[C@]4(C)CC5)CC3)c3ccc(=[N+](CC)CC)cc-3oc2c1 (stereo partly drawn) [compound 20, 9-[2-[[4-(3β-Acetyloxy-20,28-dioxo-30-norlupan-28-yl)-1-homopiperazinyl]carbonyl]phenyl]-3,6-bis(diethylamino)-xanthylium chloride] | 300 ± 27 nM | 240 ± 17 nM | 150 ± 50 nM | 120 ± 18 nM | 340 ± 56 nM
7 | C=C(C)[C@@H]1CC[C@]2(C(=O)N3CCCNCC3)CC[C@]3(C)C(CCC4[C@@]5(C)CC[C@H](OC(C)=O)C(C)(C)C5CC[C@]43C)C12 (stereo partly drawn) [compound 9, 3β-Acetyloxy-28-(1-homopiperazinyl)-lup-20(29)en-28-one] | 5100 ± 1100 nM | 18700 ± 1600 nM | 10700 ± 1000 nM | 12000 ± 600 nM | 18700 ± 1600 nM
